This data set can be described thus: clinical. To be noted: human, in vivo. The source says: This study was approved by the Institutional Review Board of Emory University, the Drug Safety Monitoring Board (NINDS) and the FDA (IND #58,986). After obtaining informed consent, thirty-six patients meeting the inclusion criteria outlined as follows were studied. […] Inclusion criteria required that each patient be ≧18 years old, have a closed head injury arising from blunt trauma, have a moderate to severe brain injury (Index Glasgow Coma Score (GCS) 4-12) and arrive in the Emergency Department and obtain informed consent (from next-of-kin) in less than 11 hours post injury.
Aliquots of each solution were assayed for final concentration and sterility. […] Each kit contained six vials. […] The placebo kits were also formulated with 95% ethanol. Because of the alcohol concentration, doses of study drug were mixed with Intralipid® immediately prior to infusion. Each infusion dose was administered over 12 hours and repeated every 12 hours for a total of 72 hours. […] The dosing worksheet was also used to calculate the volume of study medication to be diluted in Intralipid® for each of the remaining infusion reservoirs at a standard rate of 10 cc/hr.
Nine (5 ml) samples were obtained at the following times during the infusion: pre-infusion (0), 4, 6, 12, 24, 36, 48, 60, and 72 hours. An additional five samples were obtained following cessation of infusion at: 0.5, 1, 2, 4 and 8 hours. Samples were allowed to clot, and then centrifuged After that, the serum was removed and stored at −70° C. until analyzed.
The primary pharmacokinetic parameter, CL, was estimated as the ratio of the dose to area under the serum concentration-time curve (AUC). AUC's were calculated using the linear trapezoidal rule (Veng-Pedersen (1989) Clin Pharmacokinet, 17(6):424-40). The elimination phase rate constant, ke, was calculated from the serum concentration-time data following the termination of the infusion using iterative non-linear regression (WinNonlin®, Pharsight Corporation, Mountain View, Calif.). Volume of Distribution was estimated as the ratio of CL and ke. Css was estimated as the ratio of Dose and CL. Actual Css was defined as the concentration achieved when the slope of the serum concentration-time curve for three or more consecutive samples was not different from zero.
Predicted Css concentrations were calculated as the ratio of the infusion rate/clearance. Differences between predicted and measured Css were made using a ‘t’ test for repeated measures. A Bland-Altman analysis was conducted to assess the magnitude of any bias associated with this approach (Bland and Altman (1986) Lancet, 1(8476):307-10). Pharmacokinetic parameter comparisons between male and female were accomplished using a ‘t’ test for independent means. A p value of less than 0.05 was considered the minimum level for rejection of the null hypothesis.

Compound `CC(=O)[C@H]1CC[C@H]2[C@@H]3CCC4=CC(=O)CC[C@]4(C)[C@H]3CC[C@]12C` [progesterone, pregn-4-ene-3,20-dione] returned a Css actually measured (both) of 337 ± 135 ng/mL. Also, the “Css predicted by Ro/CL” value (both) was 332 ± 121 ng/mL. Further, the clearance reads like this: (both, CL) 28.8 mL/min/kg; (female, CL) 31.3 mL/min/kg; (male, CL) 27.7 mL/min/kg; (male, iv) 22.2 mL/min/kg. In addition, the half-life by setting is: (both, terminal half-life) 1.78 ± 1 h; (female, t1/2) 2.03 ± 1.08 h; (male, t1/2) 1.6 ± 0.95 h. Further, under “female”, the “Css Measured” value is recorded as 316 ng/mL. Moreover, the distribution volume (Vd) runs as follows: (female, iv) 1.33 L/kg; (male, iv) 1.62 L/kg.

The clearance is a measure of how efficiently the substance is removed, as volume per time. Read a high clearance as efficient removal. What is called half-life is the time in which the quantity being followed falls by half. In general, Vd refers to a proportionality between amount in the body and measured concentration, not a real space. Low values mean little distribution into tissue, high ones wide distribution into tissue.

(Values after US20090325920A1, “METHODS FOR THE TREATMENT OF A TRAUMATIC CENTRAL NERVOUS SYSTEM INJURY” (priority 2005, published 2009).)
